The text below walks through data of PubChem BioAssay AID1919 (The Scripps Research Institute Molecular Screening Center, 2009).

The source made the active and inactive calls.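 How the source made its calls: active means IC50 against the VIM-2 bacterial beta-lactamase enzyme at or below a set limit; inactive means IC50 above that set limit.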

The assay concerns the target VIM-2 metallo-beta-lactamase (Pseudomonas aeruginosa) (UniProt Q932Y6). The assay is described as follows: VIM-2 metallo-beta-lactamase inhibitor potency, dose response, biochemical, epi-absorbance readout, selective inhibitors (AID 1919). The settings on record: purified VIM-2, nitrocefin hydrolysis, epi-absorbance fluorescence.
As for `Cc1n[nH]c(C)c1CCCCOc1ccc([N+](=O)[O-])cc1`, the IC50 entry is “inactive”.
The same measure for `Cc1cccc(C(=O)Nc2nnc(SCC(=O)NCc3ccco3)s2)c1`: > 59.6 µM (inactive); for `O=C(O)C1Sc2[nH]c(=O)sc2C2c3cc(Cl)ccc3OC(=O)C12` (centres undefined): > 59.6 µM (inactive); for `CCOC(=O)c1[nH]c(C(=O)O)c(CCC(=O)OC)c1C`: “inactive”.
As to `COc1ccc2[nH]c(C(=O)O)c(CCN3C(=O)c4ccc(C(=O)O)cc4C3=O)c2c1`, the IC50 was 1.43 µM.
The same measure for `CCn1c(-c2nn(-c3ccccc3)ccc2=O)n[nH]c1=S`: “inactive”; for `C=C(c1cccc2ccccc12)P(=O)(O)O`: 6.81 µM; for `Cn1ccnc1SCC(=O)Nc1ccc2nc(SCC(=O)NC3CC3)sc2c1`: “inactive”.
On to `Cc1ccc(-n2c(-c3nn(C)c(C)c3Cl)n[nH]c2=S)cc1`, for which the IC50 entry was “inactive”.
For the molecule `O=C(O)c1ccccc1Sc1ncnc2sc3c(c12)CCC3`, the IC50 entry is “inactive”.
The same measure for `O=P(O)(O)c1ccccc1OCCCCCOc1ccccc1P(=O)(O)O`: 2.4 µM; for `Cc1c(C)c2ccc(OCC(=O)N3CCC[C@@H]3C(=O)O)c(C)c2oc1=O`: 6.07 µM; for `COCC(=O)Nc1nnc(SCC(=O)NCc2cccs2)s1`: 9.67 µM.
The same measure for `COc1ccc(-c2n[nH]c(=S)n2-c2ccc3c(c2)OCCO3)cc1OC`: “inactive”; for `CC(C)(C)C(=O)Nc1nnc(SCC(=O)NCc2cccs2)s1`: 2.62 µM.
`CSc1nc(SCC(=O)O)c2c3c(sc2n1)COC(C)(C)C3`: the IC50 result was “inactive”.
The same measure for `Cc1cc(OCc2cc(C(=O)O)oc2C)c2c3c(c(=O)oc2c1)CCCC3`: 1.49 µM; for `O=C(O)CC/C(=C\c1cc([N+](=O)[O-])ccc1Cl)c1nc2ccccc2s1`: “inactive”.
The same measure for `Cc1ccc(S(=O)(=O)n2[nH]c(=O)cc2NC(=O)c2cccs2)cc1`: 0.453 µM; for `CCCc1cc(=O)oc2c3c(cc(OCC(=O)N4CCC[C@H]4C(=O)O)c12)OC(C)(C)CC3`: 6.62 µM; for `C=C(C)Cn1c(-c2cccs2)n[nH]c1=S`: 5.07 µM.
The same measure for `COc1cc2c(cc1OC)C(C)N(C(=O)c1nccnc1C(=O)O)CC2` (centres undefined): “inactive”; for `O=C(CSc1nnc(NC(=O)C2CC2)s1)NCc1ccccc1Cl`: “inactive”.
In the case of `Cc1c(C)c2c(OCC(=O)N[C@@H](C)C(=O)O)cc3c(c2oc1=O)CCC(C)(C)O3`, the half-inhibitory concentration (IC50) was 4.44 µM.
The same measure for `COCC(C)NC(=O)c1cc2cccc([N+](=O)[O-])c2[nH]1` (centres undefined): “inactive”; for `CCCCn1c(-c2sccc2C)n[nH]c1=S`: 4.73 µM; for `O=C1Nc2cc(C(=O)NCCCN3CCOCC3)ccc2S/C1=C/c1ccccc1F`: “inactive”.
The same measure for `O=c1[nH]c2c(s1)C(c1cccnc1)C1C3CCC(C3)C1S2` (centres undefined): 0.0544 µM.
The same measure for `S=c1[nH]nc(Cn2c(-c3ccccn3)nc3ccccc32)n1-c1ccc2c(c1)OCCO2`: “inactive”; for `COc1ccccc1-c1n[nH]c(=S)n1Cc1ccco1`: “inactive”; for `CC(=O)c1ccc(-c2ccc(Cn3c(C)nc4cc(N)c(C)nc43)cc2)cc1`: > 59.6 µM (inactive).
As for `S=c1[nH]nc(-c2cccs2)n1Cc1ccccc1`, the IC50 is 4.09 µM.
The same measure for `S=c1[nH]nc(-c2ccco2)n1-c1cccc2ccccc12`: “inactive”; for `CCCCn1c(-c2nn(C)c(C)c2Cl)n[nH]c1=S`: 5.37 µM.
As for `Cc1cc(=O)oc2c3c(cc(OCC(=O)N[C@@H](Cc4ccccc4)C(=O)O)c12)OC(C)(C)CC3`, the IC50 result is “inactive”.
Take `CC(C)(C)c1ccc(-c2n[nH]c(=S)n2CCCN2CCOCC2)cc1`: the IC50 result was “inactive”.
For `O=C(CSc1nnc(NC(=O)c2c(F)cccc2F)s1)NCc1ccccc1`, the IC50 was 9.26 µM.
For `O=P(O)(O)c1ccccc1OCc1ccccc1`, the IC50 was 2.44 µM.
The same measure for `Cc1nn(CCc2n[nH]c(=S)n2-c2cccc(Cl)c2)c(C)c1[N+](=O)[O-]`: “inactive”; for `O=C(O)Cn1cccc1C(=O)c1ccccc1`: “inactive”; for `Cc1cc(=O)oc2c3c(cc(OCC(=O)N4CCC[C@H]4C(=O)O)c12)OC(C)(C)CC3`: “inactive”.
For `COc1ccccc1C(=O)Nc1nnc(SCC(=O)NCc2ccco2)s1`, the IC50 was 6.48 µM.
For the molecule `Cc1ccc(-c2n[nH]c(=S)n2-c2ccccc2)cc1`, the IC50 is > 59.6 µM (inactive).
`Cc1cc(C)n(-c2nc(SCC(=O)O)c3c4c(sc3n2)COC(C)(C)C4)n1`: the IC50 result is “inactive”.
In the case of `O=C(CSc1nnc(NC(=O)c2ccccc2F)s1)NCc1ccc(F)cc1`, the IC50 entry is “inactive”.
As for `S=c1[nH]nc(-c2ccc3ccccc3n2)n1-c1ccc2c(c1)OCCO2`, the IC50 entry was “inactive”.
The same measure for `O=C(CSc1nnc(NC(=O)C2CCCCC2)s1)NCc1ccco1`: 6.64 µM.
The same measure for `Cc1ccccc1C(=O)Nc1nnc(SCC(=O)NCc2ccco2)s1`: 3.01 µM.
As for `S=c1[nH]nc(C2CC2)n1Cc1ccco1`, the IC50 is 9.32 µM.
Consider `O=C(CSc1nnc(NC(=O)c2cc(Br)ccc2Cl)s1)NCC1CCCO1` (centres undefined), for which the IC50 entry was “inactive”.
Take `Cc1cccc(C2c3[nH]c4ccccc4c3CCN2C(=O)c2cc(CC(C)C)[nH]c(=O)n2)n1` (centres undefined): the concentration for half-maximal inhibition (IC50) was 7.93 µM.
The same measure for `CCCCc1cc(=O)oc2c3c(cc(OCC(=O)N4CCC[C@H]4C(=O)O)c12)OC(C)(C)CC3`: “inactive”; for `O=C(O)c1[nH]c2ccc(Cl)cc2c1CCN1C(=O)c2ccccc2C1=O`: 1.29 µM; for `CC(C)Cn1c(-c2ccco2)n[nH]c1=S`: “inactive”.
Regarding `O=c1c2ccccc2cnn1Cc1n[nH]c(=S)n1C1CC2CCC1C2` (centres undefined), the IC50 result is “inactive”.
The same measure for `CCN(CC)C(=O)CSc1nc2ccc(NC(=O)CSc3nccn3C)cc2s1`: “inactive”; for `Cc1ccc(-c2c(C(=O)O)c(C(=O)O)c3n2CSC3)cc1`: 9.91 µM.
The same measure for `Cc1c(Cl)c(-c2n[nH]c(=S)n2-c2ccc(F)cc2)nn1C`: “inactive”; for `S=c1[nH]nc(-c2ccccc2)n1Cc1ccccc1`: “inactive”; for `Cc1c(OCC(=O)N2CCC[C@@H]2C(=O)O)ccc2c3c(c(=O)oc12)CCC3`: “inactive”.
For `C=CCn1c(C2CC2)n[nH]c1=S`, the IC50 result is “inactive”.
Consider `S=c1[nH]nc(C2CC2)n1Cc1ccccc1`, for which the 50% inhibitory concentration (IC50) was 3.35 µM.
For `NC(=O)SCC(=O)Nc1ccccc1C(=O)O`, the IC50 entry was “inactive”.
The same measure for `CCCCn1c(-c2ccoc2C)n[nH]c1=S`: “inactive”.
